{"source": "patent US20120037840A1", "about": "“USE OF MAGNETIC NANOPARTICLES TO REMOVE ENVIRONMENTAL CONTAMINANTS” (priority 2008, published 2012)", "key": {"[1]": {"settings": "cited from earlier work; for log10(Kow): organic solvents used for extraction of HA-stabilized CNTs (FIG. 9); for Kow: octanol-water coefficient"}, "[2]": {"settings": "water solubility of the HOC; cited from earlier work"}, "[3]": {"settings": "benzalkonium chloride concentration of 6.0 g/L; cited from earlier work"}, "[4]": {"assay": "Sorption kinetics of HOCs onto Mag-PCMAs from contaminated water", "format": "physicochemical", "settings": "20 mg/L HA; initial diuron 34.3 μmol/L", "protocol": "Sorption kinetics of HOCs onto Mag-PCMAs from contaminated water. The HOC sorption kinetics onto Mag-PCMAs were determined by batch experiments. Aliquots (50 mg) of Mag-PCMAs were mixed in 10 ml glass tubes with 10.0 ml of an aqueous solution of each HOC. […] The caps of the tubes were lined with PTFE. The tubes were shaken at 60 rpm at 22±2° C. continuously. At the end of 5, 10, 20, 30, 45, 60, 90, 120, 180, 200, 360, 720, and 1440 minutes, one tube was taken out. A magnet was then used to separate the Mag-PCMAs from the aqueous phase. […] 1.0 ml of the supernatant was taken for HOC analysis on a high performance liquid chromatography (HPLC). The amount of HOC sorbed was calculated as the difference between the initial and final HOC mass in aqueous phase. To order to investigate the effect of the presence of HA on HOC sorption kinetics, diuron sorption kinetics were determined in the presence of 20 mg/L HA (organic carbon content), an environmental relevant HA concentration.^29 The initial diuron concentration was 34.3 μmol/L."}}, "data": [{"smiles": "CCCCCCCC", "note": "[octane]", "values": [{"measurement": "log10(Kow)", "setting": "[1]", "result": 5.18}]}, {"smiles": "CN(C)C(=O)Nc1ccc(Cl)c(Cl)c1", "note": "[Diuron, 3-(3,4-dichlorofenyl)-1,1-dimethylurea]", "values": [{"measurement": "Kow", "setting": "[1]", "result": 660}, {"measurement": "Solubility", "setting": "[2]", "result": 180, "unit": "µg/mL"}, {"measurement": "solubility of diuron relative to that in absence of the surfactant", "setting": "[3]", "result": "about 20 times"}, {"measurement": "effect of presence of HA on sorption kinetics", "setting": "[4]", "result": "no significant effect"}]}, {"smiles": "CCCCCC", "note": "[hexane]", "values": [{"measurement": "log10(Kow)", "setting": "[1]", "result": 4.00}]}, {"smiles": "ClC=C(Cl)Cl", "note": "[TCE, trichloroethene]", "values": [{"measurement": "log10(Kow)", "setting": "[1]", "result": 2.33}]}, {"smiles": "CCNc1nc(Cl)nc(NC(C)C)n1", "note": "[Atrazine, 2-chloro-4-ethylamino-6-isopropylamino-1,3,5-triazine]", "values": [{"measurement": "Kow", "setting": "[1]", "result": 416}]}, {"smiles": "c1ccc2ccccc2c1", "note": "[Naphthalene, naphthalene]", "values": [{"measurement": "Solubility", "setting": "[2]", "result": 225, "unit": "µg/mL"}]}, {"smiles": "c1ccc(-c2ccccc2)cc1", "note": "[Biphenyl, biphenyl]", "values": [{"measurement": "Kow", "setting": "[1]", "result": 7079}, {"measurement": "Solubility", "setting": "[2]", "result": 44, "unit": "µg/mL"}]}]}
